{"source": "patent US20230019491A1", "about": "“PYRIMIDINE TBK/IKKe INHIBITOR COMPOUNDS AND USES THEREOF” (Merck Patent GmbH, priority 2017, published 2023)", "key": {"TBK1": {"target": "T1, TBK1 (Homo sapiens, UniProt Q9UHD2)", "T1 sequence (Q9UHD2 1-729)": "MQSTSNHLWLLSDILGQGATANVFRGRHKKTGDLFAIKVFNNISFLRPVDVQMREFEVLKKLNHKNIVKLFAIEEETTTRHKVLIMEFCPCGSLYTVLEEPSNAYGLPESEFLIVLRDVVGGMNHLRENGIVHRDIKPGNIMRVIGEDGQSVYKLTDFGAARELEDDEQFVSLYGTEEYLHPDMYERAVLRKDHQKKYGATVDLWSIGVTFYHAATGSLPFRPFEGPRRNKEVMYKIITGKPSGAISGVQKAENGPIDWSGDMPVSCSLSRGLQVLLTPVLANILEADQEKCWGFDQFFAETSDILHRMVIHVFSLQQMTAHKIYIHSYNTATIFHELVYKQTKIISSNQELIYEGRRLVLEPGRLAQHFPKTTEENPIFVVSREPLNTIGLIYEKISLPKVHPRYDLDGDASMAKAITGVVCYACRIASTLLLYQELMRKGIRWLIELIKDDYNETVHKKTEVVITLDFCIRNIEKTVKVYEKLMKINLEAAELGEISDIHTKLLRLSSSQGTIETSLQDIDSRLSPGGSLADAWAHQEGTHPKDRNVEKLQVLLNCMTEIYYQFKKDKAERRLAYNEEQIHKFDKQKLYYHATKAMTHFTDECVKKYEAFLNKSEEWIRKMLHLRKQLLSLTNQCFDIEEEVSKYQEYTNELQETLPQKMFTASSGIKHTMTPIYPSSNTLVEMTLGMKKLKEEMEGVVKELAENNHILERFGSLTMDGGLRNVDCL", "assay": "TBK biochemical assay", "settings": "10 point 1:4 dose response, 30 uM top concentration, 90 min at 25° C., LabChip EZ Reader II; read-out: TBK1_IC50", "method_in_brief": "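Read-out was a Caliper LabChip mobility-shift assay, run after a 90-min, 25 °C reaction of TBK1 with substrate and compounds, quenched with stop buffer. Control wells received staurosporine at 10 uM final.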"}, "IKKε": {"target": "T2, IKKε (Homo sapiens, UniProt Q14164)", "T2 sequence (Q14164 1-716)": "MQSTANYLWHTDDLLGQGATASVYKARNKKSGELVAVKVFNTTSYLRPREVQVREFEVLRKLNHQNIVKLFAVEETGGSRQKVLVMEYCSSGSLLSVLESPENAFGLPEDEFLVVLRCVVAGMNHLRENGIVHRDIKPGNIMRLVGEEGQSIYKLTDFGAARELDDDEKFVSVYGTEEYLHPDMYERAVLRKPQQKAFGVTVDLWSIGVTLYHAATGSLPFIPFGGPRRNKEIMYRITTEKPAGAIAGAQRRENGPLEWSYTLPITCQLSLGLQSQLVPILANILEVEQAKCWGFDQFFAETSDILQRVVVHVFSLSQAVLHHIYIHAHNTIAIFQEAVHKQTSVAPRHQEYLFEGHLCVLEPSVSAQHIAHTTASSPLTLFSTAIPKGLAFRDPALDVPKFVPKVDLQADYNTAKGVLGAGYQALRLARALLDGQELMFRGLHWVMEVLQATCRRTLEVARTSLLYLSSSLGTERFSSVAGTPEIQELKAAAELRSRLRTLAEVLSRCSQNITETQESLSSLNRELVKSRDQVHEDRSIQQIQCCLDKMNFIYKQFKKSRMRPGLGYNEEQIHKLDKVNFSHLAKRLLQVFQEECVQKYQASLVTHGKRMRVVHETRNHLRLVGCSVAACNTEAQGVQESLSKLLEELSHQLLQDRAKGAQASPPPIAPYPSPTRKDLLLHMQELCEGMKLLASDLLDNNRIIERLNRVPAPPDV", "assay": "IKKε biochemical assay", "settings": "10 point 1:4 dose response, 30 uM top concentration, 90 min at 25° C., LabChip EZ Reader II; read-out: IKKε_IC50", "method_in_brief": "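Mobility-shift LabChip read-out followed a 90 min, 25° C. reaction of IKKε with substrate and test compound, with DMSO held at 1% final. Reactions were ended with stop buffer. Wells with 10 uM final staurosporine defined complete inhibition, and DMSO-only wells the uninhibited level.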"}}, "note": "pIC50: −log10 of the molar value. Where a name gives a salt, the structure may show the parent alone."}
{"smiles": "C[C@@H](O)C(=O)N1CCC(Oc2ccc(-c3ccnc(Nc4ccccn4)n3)cc2C#N)C(F)(F)C1", "note": "(stereo partly drawn) [Example 221, 2-[3,3-Difluoro-1-((R)-2-hydroxy-propionyl)-piperidin-4-yloxy]-5-[2-(pyridin-2-ylamino)-pyrimidin-4-yl]-benzonitrile]", "values": [{"measurement": "pIC50", "setting": "TBK1", "result": "6.00 to 7.00"}, {"measurement": "pIC50", "setting": "IKKε", "result": "6.00 to 7.00"}]}
{"smiles": "COc1nc(Nc2nccc(-c3ccc(OC4CCOCC4)c(C#N)c3)n2)ccc1C(=O)NC1C2COCC21", "note": "(stereo not shown) [Example 8, 6-([4-[3-cyano-4-(oxan-4-yloxy)phenyl]pyrimidin-2-yl]amino)-2-methoxy-N-[3-oxabicyclo[3.1.0]hexan-6-yl]pyridine-3-carboxamide]", "values": [{"measurement": "pIC50", "setting": "TBK1", "result": "> 7.00"}, {"measurement": "pIC50", "setting": "IKKε", "result": "> 7.00"}]}
{"smiles": "COc1nc(Nc2nccc(-c3ccc(OC4CCOCC4)c(C#N)c3)n2)ccc1C(=O)NC1CN2CCC1CC2", "note": "(stereo not shown) [Example 21, 6-((4-(3-cyano-4-((tetrahydro-2H-pyran-4-yl)oxy)phenyl)pyrimidin-2-yl)amino)-2-methoxy-N-(quinuclidin-3-yl)nicotinamide]", "values": [{"measurement": "pIC50", "setting": "TBK1", "result": "> 7.00"}, {"measurement": "pIC50", "setting": "IKKε", "result": "> 7.00"}]}
{"smiles": "COc1nc(Nc2nccc(-c3ccc(OC4CCOCC4)c(C#N)c3)n2)ccc1CNC1CCN(C)CC1", "note": "[Example 41, 5-[2-[(6-methoxy-5-[[(1-methylpiperidin-4-yl)amino]methyl]pyridin-2-yl)amino]pyrimidin-4-yl]-2-(oxan-4-yloxy)benzonitrile hydrochloride]", "values": [{"measurement": "pIC50", "setting": "TBK1", "result": "> 7.00"}, {"measurement": "pIC50", "setting": "IKKε", "result": "> 7.00"}]}
{"smiles": "COc1nc(Nc2nccc(-c3ccc(OC4CCN(C(=O)[C@H](C)O)C(C)C4)c(C#N)c3)n2)ccc1N1CCN(C2COC2)CC1", "note": "(stereo partly drawn) [Example 266, 2-[1-((S)-2-Hydroxy-propionyl)-2-methyl-piperidin-4-yloxy]-5-{2-[6-methoxy-5-(4-oxetan-3-yl-piperazin-1-yl)-pyridin-2-ylamino]-pyrimidin-4-yl}-benzonitrile]", "values": [{"measurement": "pIC50", "setting": "TBK1", "result": "> 7.00"}, {"measurement": "pIC50", "setting": "IKKε", "result": "> 7.00"}]}
{"smiles": "COc1nc(Nc2nccc(-c3ccc(OC4CCOCC4)c(C#N)n3)n2)ccc1C1CCN(C)CC1", "note": "[Example 46, 6-(2-[[6-methoxy-5-(1-methylpiperidin-4-yl)pyridin-2-yl]amino]pyrimidin-4-yl)-3-(oxan-4-yloxy)pyridine-2-carbonitrile]", "values": [{"measurement": "pIC50", "setting": "TBK1", "result": "> 7.00"}, {"measurement": "pIC50", "setting": "IKKε", "result": "> 7.00"}]}
{"smiles": "COc1nc(Nc2nccc(-c3ccc(OC4CCOCC4)c(C#N)c3)n2)ccc1C(=O)N(C)CCO", "note": "[Example 3, 6-([4-[3-cyano-4-(oxan-4-yloxy)phenyl]pyrimidin-2-yl]amino)-N-(2-hydroxyethyl)-2-methoxy-N-methylpyridine-3-carboxamide]", "values": [{"measurement": "pIC50", "setting": "TBK1", "result": "> 7.00"}, {"measurement": "pIC50", "setting": "IKKε", "result": "> 7.00"}]}
{"smiles": "COc1nc(Nc2nccc(-c3ccc(OC4CCN(C(=O)[C@@H](O)CO)CC4(F)F)c(C#N)c3)n2)ccc1N1CCN(C2COC2)[C@H](C)C1", "note": "(stereo partly drawn) [Example 262, 2-[1-((S)-2,3-Dihydroxy-propionyl)-3,3-difluoro-piperidin-4-yloxy]-5-{2-[6-methoxy-5-((R)-3-methyl-4-oxetan-3-yl-piperazin-1-yl)-pyridin-2-ylamino]-pyrimidin-4-yl}-benzonitrile]", "values": [{"measurement": "pIC50", "setting": "TBK1", "result": "> 7.00"}, {"measurement": "pIC50", "setting": "IKKε", "result": "> 7.00"}]}
{"smiles": "COc1nc(Nc2nccc(-c3ccc(OC4CCN(C(=O)c5cocn5)CC4)c(C#N)c3)n2)ccc1N1CCN(C)CC1", "note": "[Example 93, 5-(2-[[6-methoxy-5-(4-methylpiperazin-1-yl)pyridin-2-yl]amino]pyrimidin-4-yl)-2-([1-[(1,3-oxazol-4-yl)carbonyl]piperidin-4-yl]oxy)benzonitrile]", "values": [{"measurement": "pIC50", "setting": "TBK1", "result": "> 7.00"}, {"measurement": "pIC50", "setting": "IKKε", "result": "> 7.00"}]}
{"smiles": "COc1nc(Nc2ncc(F)c(-c3ccc(OC4CCN(C(=O)C(C)O)CC4(F)F)c(C#N)c3)n2)ccc1N1CCN(C2COC2)CC1", "note": "(stereo not shown) [Example 291, 2-{[33-difluoro-1-(2-hydroxypropanoyl)piperidin-4-yl]oxy}-5-[5-fluoro-2-({6-methoxy-5-[4-(oxetan-3-yl)piperazin-1-yl]pyridin-2-yl}amino)pyrimidin-4-yl]]", "values": [{"measurement": "pIC50", "setting": "TBK1", "result": "> 7.00"}, {"measurement": "pIC50", "setting": "IKKε", "result": "> 7.00"}]}
{"smiles": "COc1nc(Nc2nccc(-c3ccc(OC4CN(C)C4)c(C#N)c3)n2)ccc1C(=O)N(C)C", "note": "[Example 69, 6-[(4-[3-cyano-4-[(1-methylazetidin-3-yl)oxy]phenyl]pyrimidin-2-yl)amino]-2-methoxy-N,N-dimethylpyridine-3-carboxamide]", "values": [{"measurement": "pIC50", "setting": "TBK1", "result": "6.00 to 7.00"}, {"measurement": "pIC50", "setting": "IKKε", "result": "6.00 to 7.00"}]}
{"smiles": "COc1cc(C(=O)N(C)C)ncc1Nc1nccc(-c2ccc(OC3CCOCC3)c(C#N)c2)n1", "note": "[Example 47, 5-([4-[3-cyano-4-(oxan-4-yloxy)phenyl]pyrimidin-2-yl]amino)-4-methoxy-N,N-dimethylpyridine-2-carboxamide]", "values": [{"measurement": "pIC50", "setting": "TBK1", "result": "> 7.00"}, {"measurement": "pIC50", "setting": "IKKε", "result": "6.00 to 7.00"}]}
{"smiles": "COc1cc(Nc2nccc(-c3ccc(OC4CCOCC4)c(C#N)c3)n2)ncc1C1CCN(C)CC1", "note": "[Example 59, 5-(2-[[4-methoxy-5-(1-methylpiperidin-4-yl)pyridin-2-yl]amino]pyrimidin-4-yl)-2-(oxan-4-yloxy)benzonitrile hydrochloride]", "values": [{"measurement": "pIC50", "setting": "TBK1", "result": "6.00 to 7.00"}, {"measurement": "pIC50", "setting": "IKKε", "result": "> 7.00"}]}
{"smiles": "N#Cc1cc(-c2ccnc(Nc3ccc(N4CCN(C5COC5)CC4)cc3)n2)ccc1OC1CCOCC1", "note": "[Example 135, 2-(oxan-4-yloxy)-5-[2-([4-[4-(oxetan-3-yl)piperazin-1-yl]phenyl]amino)pyrimidin-4-yl]benzonitrile]", "values": [{"measurement": "pIC50", "setting": "TBK1", "result": "> 7.00"}, {"measurement": "pIC50", "setting": "IKKε", "result": "> 7.00"}]}
{"smiles": "COc1nc(Nc2nccc(-c3ccc(OC4CCN(C(=O)[C@H](C)O)CC4(F)F)c(C#N)c3)n2)ccc1N1CCN(C)[C@@H](C)C1", "note": "(stereo partly drawn) [Example 105, 2-[3,3-Difluoro-1-((S)-2-hydroxy-propionyl)-piperidin-4-yloxy]-5-{2-[5-((S)-3,4-dimethyl-piperazin-1-yl)-6-methoxy-pyridin-2-ylamino]-pyrimidin-4-yl}-benzonitrile]", "values": [{"measurement": "pIC50", "setting": "TBK1", "result": "> 7.00"}, {"measurement": "pIC50", "setting": "IKKε", "result": "> 7.00"}]}
{"smiles": "COc1nc(Nc2nccc(-c3ccc(OC4CCN(C(=O)[C@@H](C)O)CC4(F)F)c(C#N)c3)n2)ccc1C1CCN(C2COC2)CC1", "note": "(stereo partly drawn) [Example 330, 2-([3,3-difluoro-1-[(2R)-2-hydroxypropanoyl]piperidin-4-yl]oxy)-5-[2-([6-methoxy-5-[1-(oxetan-3-yl)piperidin-4-yl]pyridin-2-yl]amino)pyrimidin-4-yl]benzonitrile]", "values": [{"measurement": "pIC50", "setting": "TBK1", "result": "> 7.00"}, {"measurement": "pIC50", "setting": "IKKε", "result": "> 7.00"}]}
{"smiles": "CN(C)C(=O)c1ccc(Nc2nccc(-c3ccc(OC4CCOCC4)c(C#N)n3)n2)nc1", "note": "[Example 27, 6-([4-[6-cyano-5-(oxan-4-yloxy)pyridin-2-yl]pyrimidin-2-yl]amino)-N,N-dimethylpyridine-3-carboxamide]", "values": [{"measurement": "pIC50", "setting": "TBK1", "result": "6.00 to 7.00"}, {"measurement": "pIC50", "setting": "IKKε", "result": "6.00 to 7.00"}]}
{"smiles": "COc1nc(Nc2nccc(-c3ccc(OC4CCN(C(=O)[C@H](C)OC)CC4(F)F)c(C#N)c3)n2)ccc1N1CCN(C2COC2)CC1", "note": "(stereo partly drawn) [Example 246, 2-[3,3-Difluoro-1-((S)-2-methoxy-propionyl)-piperidin-4-yloxy]-5-{2-[6-methoxy-5-(4-oxetan-3-yl-piperazin-1-yl)-pyridin-2-ylamino]-pyrimidin-4-yl}-benzonitrile]", "values": [{"measurement": "pIC50", "setting": "TBK1", "result": "> 7.00"}, {"measurement": "pIC50", "setting": "IKKε", "result": "> 7.00"}]}
{"smiles": "COc1nc(Nc2nccc(-c3cc(C#N)c(OC4CCOCC4)cn3)n2)ccc1N1CCN(C)CC1", "note": "[Example 44, 2-(2-[[6-methoxy-5-(4-methylpiperazin-1-yl)pyridin-2-yl]amino]pyrimidin-4-yl)-5-(oxan-4-yloxy)pyridine-4-carbonitrile hydrochloride]", "values": [{"measurement": "pIC50", "setting": "TBK1", "result": "5.30 to 6.00"}, {"measurement": "pIC50", "setting": "IKKε", "result": "< 5.30"}]}
{"smiles": "COc1cc(C(=O)N(C)C)cnc1Nc1nccc(-c2ccc(NC3CCOCC3)c(C#N)c2)n1", "note": "[Example 60, 6-[(4-[3-cyano-4-[(oxan-4-yl)amino]phenyl]pyrimidin-2-yl)amino]-5-methoxy-N,N-dimethylpyridine-3-carboxamide]", "values": [{"measurement": "pIC50", "setting": "TBK1", "result": "< 5.30"}, {"measurement": "pIC50", "setting": "IKKε", "result": "< 5.30"}]}
